Results from paper PMC11475570, “Impact of Optimized Ku–DNA Binding Inhibitors on the Cellular and In Vivo DNA Damage Response” (Cancers, 2024).

Assays:
[1] = test system: Ku80-null MEF; assay: Bleomycin sensitization, CCK-8; assay type: cell-based; conditions: 20 μM 3392 for 24 h, then bleomycin 48 h
Protocol: (§1) page 20: Supplementary Figure S4. Ku-DBi 3392 sensitivity to bleomycin in wild-type (WT) and Ku 80-null MEFs cells. MEF cells were pre-treated with vehicle or 20 μM 3392 for 24 h and then increasing concentrations of bleomycin for 48 h after which cell viability was determined by CCK-8. Data are presented as the mean and SEM of triplicate determinations. (1 picture or pasted object on this page, not shown here)

[2] = test system: Ku wild-type MEFs; assay: Bleomycin sensitization, CCK-8; assay type: cell-based; conditions: 20 μM 3392 for 24 h, then bleomycin 48 h
Protocol: as §1

[3] = test system: H460 cells; assay: 3392 and bleomycin combination, CCK-8, SynergyFinder; assay type: cell-based, Human
Protocol: (§2) Cell metabolism/viability was assessed using a mitochondrial metabolism assay (CCK-8) kit (Cell Counting Kit-8, Cat: CK04, Dojindo Laboratories, Rockville, MD, USA) as previously described. Briefly, cells were seeded at a density of 3 × 10^3 cells per well in 96-well plates and allowed to adhere and stretch for 18–24 h prior to treatment. Cells were pre-treated with Ku-DBi for 24 h before bleomycin treatments. Subsequently, cells were incubated for an additional 48 h at 37 °C after which CCK-8 assay was performed. The absorbance of the formed formazan product in each well was measured at 450 nm and compared to vehicle-treated controls to determine percent cell viability. The results represent the average and SEM of triplicate determinations.

[4] = molecular target: T1, Ku 70/80 (Homo sapiens, UniProt P12956+P13010); assay: EMSA Ku–DNA binding inhibition; conditions: 32P-labeled 30-bp duplex DNA, purified Ku 70/80, mean and SD of triplicate
T1 construct: made in house; host or cells: baculovirus-infected Sf9 cells
T1 sequence (P12956 whole entry): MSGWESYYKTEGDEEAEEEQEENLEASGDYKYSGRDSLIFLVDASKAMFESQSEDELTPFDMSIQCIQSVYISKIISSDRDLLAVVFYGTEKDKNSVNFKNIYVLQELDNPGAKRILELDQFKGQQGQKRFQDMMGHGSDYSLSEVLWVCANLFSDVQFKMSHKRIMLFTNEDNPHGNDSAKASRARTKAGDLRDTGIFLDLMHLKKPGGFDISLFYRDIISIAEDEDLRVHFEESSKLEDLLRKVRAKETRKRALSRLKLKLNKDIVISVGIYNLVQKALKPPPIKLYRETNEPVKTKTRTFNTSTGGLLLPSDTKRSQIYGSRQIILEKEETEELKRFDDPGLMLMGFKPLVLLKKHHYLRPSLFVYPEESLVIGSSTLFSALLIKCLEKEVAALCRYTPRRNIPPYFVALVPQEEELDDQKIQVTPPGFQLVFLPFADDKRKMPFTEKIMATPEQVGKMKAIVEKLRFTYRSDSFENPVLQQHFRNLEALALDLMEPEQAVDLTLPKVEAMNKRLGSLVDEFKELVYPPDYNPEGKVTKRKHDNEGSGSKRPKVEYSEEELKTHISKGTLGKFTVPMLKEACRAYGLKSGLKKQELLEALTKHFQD
T1 sequence (P13010 whole entry): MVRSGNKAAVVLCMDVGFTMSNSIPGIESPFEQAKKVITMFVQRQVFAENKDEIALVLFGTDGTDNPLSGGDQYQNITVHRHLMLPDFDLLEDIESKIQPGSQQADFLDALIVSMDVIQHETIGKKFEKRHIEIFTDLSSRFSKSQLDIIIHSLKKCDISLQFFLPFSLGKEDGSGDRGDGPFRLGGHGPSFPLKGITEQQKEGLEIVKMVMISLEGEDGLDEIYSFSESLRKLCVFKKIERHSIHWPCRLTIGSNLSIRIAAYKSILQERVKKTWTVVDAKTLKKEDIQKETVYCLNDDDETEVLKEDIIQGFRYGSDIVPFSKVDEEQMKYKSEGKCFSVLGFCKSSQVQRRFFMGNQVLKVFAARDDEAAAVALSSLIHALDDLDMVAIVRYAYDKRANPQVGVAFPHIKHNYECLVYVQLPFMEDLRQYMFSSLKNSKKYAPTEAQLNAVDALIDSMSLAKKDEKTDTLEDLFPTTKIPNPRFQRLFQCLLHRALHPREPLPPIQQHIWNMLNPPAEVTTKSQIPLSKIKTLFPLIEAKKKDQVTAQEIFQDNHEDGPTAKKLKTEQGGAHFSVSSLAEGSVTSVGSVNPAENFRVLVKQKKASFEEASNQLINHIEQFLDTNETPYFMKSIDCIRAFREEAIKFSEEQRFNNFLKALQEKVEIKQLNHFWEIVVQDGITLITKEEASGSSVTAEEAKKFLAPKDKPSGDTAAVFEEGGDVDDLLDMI
Protocol: (§3) The inhibitory activity of Ku-DBis on Ku-DNA binding was evaluated in vitro using Electrophoretic mobility shift assays (EMSA) with a [^32P]-labeled 30-bp duplex DNA and purified Ku 70/80. Kinase assays were performed to measure the DNA-dependent transfer of [^32P] from γ-[^32P] ATP to a synthetic p53-based peptide substrate, both as previously described. Both EMSA and DNA-PK inhibitor titration assays were performed in triplicate. Data were fit to standard binding curves using GraphPad Prism to determine IC50 values.

[5] = test system: A549 cells; assay: γH2AX single-agent DNA damage (Western blot, immunofluorescence); assay type: cell-based, Human; conditions: Supplemental Figure S6
Source text: Supplementary Figure S6. GL-3392 single agent effect on DNA damage in NSCLC.
(A) Western blot analysis from A549 cells nuclear extracts. (B) Densitometric analysis of bands from western blot immunodetection. The original membranes can be found in File S1 (Appendix for Supplementary Figure S6A). (C) γH2AX expression levels dete rmined by Immunofluorescence. IF staining of DAPI nuclear staining (blue) and γH2AX (pS139) (red). Scale bars: 10µm. (D) Quantitation of integrated fluorescence intensity of γH2AX foci represented as the median of 300 nuclei per field. ns: not significant, ****p <0.0001 as calculated by one-way ANOVA with Dunnett’s multiple comparisons test. […]

[6] = test system: MDA-MB-436; assay: Bleomycin-sensitization activity, CCK-8; assay type: cell-based, Human; conditions: BRCA1 mutant MDA-MB-436
Protocol: as §2

[7] = test system: MDA-MB-468; assay: Bleomycin-sensitization activity, CCK-8; assay type: cell-based, Human; conditions: BRCA1 wild-type MDA-MB-468
Protocol: as §2

[8] = molecular target: T2, Ku70–Ku80 (Homo sapiens, UniProt P12956+P13010); assay: nanoDSF thermostability and aggregation; assay type: binding; conditions: Ku 5 µM, 5 µM 3392, up to 25 µM no additional change
T2 construct: made in house; host or cells: baculovirus-infected Sf9 cells
T2 sequence (P12956 whole entry): as the sequence (P12956 whole entry) above
T2 sequence (P13010 whole entry): as the sequence (P13010 whole entry) above
Protocol: The thermostability and aggregation propensity of Ku was assessed using a Prometheus Panta nanoDSF instrument (NanoTemper Technologies GmbH, München, Germany). High-sensitivity capillaries were filled with Ku (10 μL each, experiments in triplicate) at a concentration of 5 µM into the instrument. We titrated against ligand 3392 covering a concentration ranging from 0 to 30 µM with measurements collected at a 1 °C-per-minute scan rate from 25 to 95 °C. Thermal unfolding was assessed by the increase in intrinsic tryptophan fluorescence detected at 350 and 330 nm following excitation at 280 nm. Inflection points in the thermal denaturation curves were identified using the first derivatives of the ratio r = fluorescence (350 nm)/fluorescence (330 nm). We measured dynamic light scattering (DLS) and turbidity throughout the heating ramp using back reflection to characterize protein aggregation. We determined aggregation temperatures using turbidity variations and increases in particle sizes.

[9] = test system: H23 cells; assay: Clonogenic survival in combination with IR; assay type: cell-based, Human
Protocol: (§4) NSCLC cells were seeded at 2 × 10^5 cells per well into 24-well plates and grown as monolayers at 37 °C and 5% CO2 in media one day before Ku-DBi or vehicle treatments. After 2 h, cells were placed on ice for 10 min and kept on ice during irradiation with either 2 or 5 Gy of 160 kVp X-rays using a Precision X-ray machine (North Branford, CT, USA) at a dose rate of 0.687 Gy/min. Radiation dosimetry measurements were performed using a Farmer-type ionization chamber (PTW Model N30013, Freiburg, Germany) in conjunction with a Keithley electrometer (Model K602, Cleveland, OH, USA). After irradiation, cells were incubated for 1 h at 37 °C, trypsinized, replated in 100 mm dishes, and incubated at 37 °C in 5% CO2. After 11 days, cells were carefully washed in PBS before fixing and staining in 0.5% crystal violet (Cat: C581-100, Fisher Scientific, Hampton, NH, USA) with 6% glutaraldehyde (Glutaraldehyde solution, 25%. Cat: O2957-1, Fisher Scientific) in PBS for 1 h at RT. The staining solution was removed, and cells were washed with water and air-dried. For clonogenic survival analysis, colonies containing more than 50 cells were manually counted and normalized to vehicle control conditions to determine surviving fractions.

[10] = test system: A549 cells; assay: Clonogenic survival in combination with IR; assay type: cell-based, Human; conditions: A549, 2 Gy
Protocol: as §4

[11] = test system: MDA-MB-436; assay: Doxorubicin combination, CCK-8; assay type: cell-based, Human; conditions: BRCA1 mutant MDA-MB-436, 20 µM 3392 pre-treatment 3 h, doxorubicin 72 h
Protocol: Supplementary Figure S5. Decreased sensitivity to Doxorubicin mediated by Ku-DBi in MDA-436 cells. […] (B) Pre-treatment with vehicle or 20 µM 3392 and media removed after 3 h, prior 72 h doxorubicin treatment after which cell viability was determined by CCK-8. Data are presented as the mean and SEM of triplicate determinations. […]

[12] = molecular target: T3, DNA-PK (Homo sapiens, UniProt P12956+P13010); assay: DNA-PK kinase assay (phosphate transfer to p53 peptide); assay type: biochemical
T3 construct: made in house; Ku 70/80 from baculovirus-infected Sf9 cells
T3 sequence (P12956 whole entry): as the sequence (P12956 whole entry) above
T3 sequence (P13010 whole entry): as the sequence (P13010 whole entry) above
Protocol: as §3

SMILES: COc1ccc(-c2ccc(/C=C3\C(=O)N(c4cccc(C(=O)O)c4)c4ccccc43)o2)cc1C(=O)Nc1cccc(OC(F)(F)F)c1 [GL-3392]
- Ku-DBi-dependent change in sensitivity to bleomycin [1]: did not increase sensitivity
- Ku-DBi-dependent change in sensitivity to bleomycin [2]: increases in the sensitivity to bleomycin were only observed in Ku wild-type cells
- Type of interaction with bleomycin (HSA and Bliss models) ([3]; H460, 3392 combined with bleomycin): additive interaction
- inhibition at 5 µM ([3]; Homo sapiens, NCI-H460, H460, bleomycin 0 μM, GL-3392 5 μM, read-out: Response matrix for inhibition): 34%
- inhibition at 10 µM ([3]; Homo sapiens, NCI-H460, H460, bleomycin 0 μM, GL-3392 10 μM, read-out: Response matrix for inhibition): 78.9%
- inhibition at 15 µM ([3]; Homo sapiens, NCI-H460, H460, bleomycin 0 μM, GL-3392 15 μM, read-out: Response matrix for inhibition): 79.8%
- IC50 [4]: 4150 ± 1070 nM
- Induction of direct DNA damage, single agent [5]: cannot be attributed to induction of direct DNA damage
- Change in sensitivity to bleomycin [6]: decrease in sensitivity to bleomycin
- Change in sensitivity to bleomycin [7]: increase in sensitivity
- Thermal stability of Ku [8]: induced a shift in thermal stability
- Sensitivity in combination with IR, clonogenic survival ([9]; ATM-null H23, 2 Gy): minimal, statistically insignificant effect
- Sensitivity in combination with IR, clonogenic survival ([9]; ATM-null H23, 5 Gy): significantly sensitized
- Sensitivity in combination with IR, clonogenic survival [10]: increased sensitivity when combined with a 2 Gy radiation dose
- Change in doxorubicin sensitivity [11]: decrease in Dox sensitivity
- DNA-PK inhibitory activity, fold more active than fluoro-modified counterparts (3618 and 3649) [12]: ~ 2.5 fold
- IC50 ([12]; DNA-dependent phosphate transfer to synthetic p53 peptide, purified DNA-PK, mean and SD of triplicate): 770 ± 190 nM
